In patent US20240101546A1, “HETEROARYL-ACETYLENES, PHARMACEUTICAL COMPOSITIONS THEREOF, AND THEIR THERAPEUTIC APPLICATIONS” (Eubulus Biotherapeutics Inc., priority 2020, published 2024):

Test system: hepatocellular carcinoma cell line Hub-7
Test: Cell proliferation assay, Hub-7 (CELL-TITER GLO)
Assay type: cell-based
Settings: Hub-7 cells, 24 h incubation, cell viability by CELL-TITER GLO, top concentration 10 μM; read-out: EC50, Inhibition of Hub-7 Cell Proliferation
How it was run: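 Hub-7 cells, 4,000 per well, seeded overnight, then exposed 24 h to compound from 10 μM top in 3-fold serial dilution. Viability read by CELL-TITER GLO luminescence; EC50 derived and binned into potency categories.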

| EC50 | SMILES |
| --- | --- |
| 200 to 1000 nM | C#Cc1nc(C(=O)NCCc2ccc(C#N)cc2)cs1 [Compound C102, N-(4-Cyanophenethyl)-2-ethynylthiazole-4-carboxamide] |
| 1000 to 5000 nM | C#Cc1nc(C(=O)NCCc2cccc(-c3cccnc3)c2)cs1 [Compound C38, 2-Ethynyl-N-(3-(pyridin-3-yl)phenethyl)thiazole-4-carboxamide] |
| ≤ 200 nM | C#Cc1nc(C(=O)NCCc2ccc(-c3cccc4c3CNC4=O)cc2)cs1 [Compound C17, 2-Ethynyl-N-(4-(1-oxoisoindolin-4-yl)phenethyl)thiazole-4-carboxamide] |
| 200 to 1000 nM | C#Cc1nc(NC(=O)C=Cc2ccccc2)cs1 [Compound E11, N-(2-Ethynylthiazol-4-yl)cinnamamide] |
| 1000 to 5000 nM | C#Cc1nc(C(=O)NCc2cccc(-c3cnn(C)c3)c2)cs1 [Compound C59, 2-Ethynyl-N-(3-(1-methyl-1H-pyrazol-4-yl)benzyl)thiazole-4-carboxamide] |
| > 5000 nM | C#Cc1nc(C(=O)N2CCCCC2C(=O)OC)cs1 (centres unmarked) [Compound D37, Methyl 1-(2-ethynylthiazole-4-carbonyl)piperidine-2-carboxylate] |
| 200 to 1000 nM | C#Cc1ncc(C(=O)N2CCN(c3ccc(-c4cccc5scnc45)cc3)CC2)s1 [Compound D8, (4-(4-(Benzo[d]thiazol-4-yl)phenyl)piperazin-1-yl)(2-ethynylthiazol-5-yl)methanone] |
| ≤ 200 nM | C#Cc1nc(C(=O)N2CC(c3ccc(-c4cccc5ncsc45)cc3)C2)cs1 [Compound D13, (3-(4-(Benzo[d]thiazol-7-yl)phenyl)azetidin-1-yl)(2-ethynylthiazol-4-yl)-methanone] |
| 200 to 1000 nM | C#Cc1nc(C(=O)N2CCN(c3ccc(-c4cc(C(=O)NC)cc5ncsc45)cc3)CC2)cs1 [Compound D3, 7-(4-(4-(2-Ethynylthiazole-4-carbonyl)piperazin-1-yl)phenyl)-N-methylbenzo[d]thiazole-5-carboxamide] |
| > 5000 nM | C#Cc1nc(C(=O)NCc2cnn(C)c2)cs1 [Compound C120, 2-Ethynyl-N-((1-methyl-1H-pyrazol-4-yl)methyl)thiazole-4-carboxamide] |
| 1000 to 5000 nM | C#Cc1nc(C(=O)NCc2ccc(-c3cc[nH]n3)cc2)cs1 [Compound C91, N-(4-(1H-Pyrazol-3-yl)benzyl)-2-ethynylthiazole-4-carboxamide] |
| 200 to 1000 nM | C#Cc1nc(C(=O)NCc2cccc(Cl)c2)c(C)s1 [Compound C52, N-(3-Chlorobenzyl)-2-ethynyl-5-methylthiazole-4-carboxamide] |
| 1000 to 5000 nM | C#Cc1nc(C(=O)NCc2cccc(Cl)c2)c(-c2ccccc2)s1 [Compound C56, N-(3-Chlorobenzyl)-2-ethynyl-5-phenylthiazole-4-carboxamide] |
| 200 to 1000 nM | C#Cc1nc(C(=O)N2CCC(c3ccccc3)CC2)cs1 [Compound D29, (2-Ethynylthiazol-4-yl)(4-phenylpiperidin-1-yl)methanone] |
| ≤ 200 nM | C#Cc1nc(C(=O)NCc2ccc(-c3ccccc3)cc2)cs1 [Compound C114, N-([1,1′-Biphenyl]-4-ylmethyl)-2-ethynylthiazole-4-carboxamide] |
| ≤ 200 nM | C#Cc1nc(C(=O)N2CCN(c3ccc(-c4cccc5[nH]ncc45)cc3)CC2)cs1 [Compound D25, (4-(4-(1H-Indazol-4-yl)phenyl)piperazin-1-yl)(2-ethynylthiazol-4-yl)methanone] |
| 200 to 1000 nM | C#Cc1nc(C(=O)NCCc2ccc(-c3cccc4c3C(=O)NC4)cc2)cs1 [Compound C13, 2-Ethynyl-N-(4-(3-oxoisoindolin-4-yl)phenethyl)thiazole-4-carboxamide] |
| 1000 to 5000 nM | C#Cc1nc(C(=O)Nc2cccc3[nH]ncc23)cs1 [Compound C130, 2-Ethynyl-N-(1H-indazol-4-yl)thiazole-4-carboxamide] |
| 1000 to 5000 nM | C#Cc1nc(C(=O)N2CCN(c3ccc(-c4cc(C(N)=O)cc5ncsc45)cc3)CC2)cs1 [Compound D5, 7-(4-(4-(2-Ethynylthiazole-4-carbonyl)piperazin-1-yl)phenyl)benzo[d]thiazole-5-carboxamide] |
| 200 to 1000 nM | C#Cc1nc(C(=O)NCCc2cccc(-c3cccc4[nH]ncc34)c2)cs1 [Compound C39, N-(3-(1H-Indazol-4-yl)phenethyl)-2-ethynylthiazole-4-carboxamide] |
| ≤ 200 nM | C#Cc1nc(NC(=O)N2CC(c3ccc(-c4cccc5ncsc45)cc3)C2)cs1 [Compound B2, 3-(4-(Benzo[d]thiazol-7-yl)phenyl)-N-(2-ethynylthiazol-4-yl)azetidine-1-carboxamide] |
| 200 to 1000 nM | C#Cc1nc(NC(=O)[C@H](N)Cc2ccccc2)cs1 [Compound E3, (R)-2-Amino-N-(2-ethynylthiazol-4-yl)-3-phenylpropanamide] |
| 1000 to 5000 nM | C#Cc1nc(C(=O)NCc2ccc3ncccc3c2)cs1 [Compound C96, 2-Ethynyl-N-(quinolin-6-ylmethyl)thiazole-4-carboxamide] |
| 1000 to 5000 nM | C#Cc1nc(C(=O)NCCc2ccc(O)c(OC)c2)cs1 [Compound C122, 2-Ethynyl-N-(4-hydroxy-3-methoxyphenethyl)thiazole-4-carboxamide] |

| EC50 | SMILES |
| --- | --- |
| 1000 to 5000 nM | C#Cc1nc(C(=O)NCc2ccc(-c3cccc4[nH]ccc34)cc2)cs1 [Compound C28, N-(4-(1H-Indol-4-yl)benzyl)-2-ethynylthiazole-4-carboxamide] |
| 200 to 1000 nM | C#Cc1nc(C(=O)NCc2cccc(-c3cc[nH]n3)c2)cs1 [Compound C60, N-(3-(1H-Pyrazol-3-yl)benzyl)-2-ethynylthiazole-4-carboxamide] |
| ≤ 200 nM | C#Cc1nc(C(=O)NCc2ccccc2C#N)cs1 [Compound C63, N-(2-Cyanobenzyl)-2-ethynylthiazole-4-carboxamide] |
| 1000 to 5000 nM | C#Cc1nc(C(=O)NCc2ccc(-c3cccc4[nH]ncc34)cc2)cs1 [Compound C40, N-(4-(1H-Indazol-4-yl)benzyl)-2-ethynylthiazole-4-carboxamide] |
| 200 to 1000 nM | C#Cc1nc(NC(=O)NCc2ccc(-c3cccc(C(=O)NC)c3)cc2)cs1 [Compound A14, 4′-((3-(2-Ethynylthiazol-4-yl)ureido)methyl)-N-methyl-[1,1′-biphenyl]-3-carboxamide] |
| ≤ 200 nM | C#Cc1nc(NC(=O)NCc2ccc(-c3cccc4ncnc(O)c34)cc2)cs1 [Compound A9, 1-(2-Ethynylthiazol-4-yl)-3-(4-(4-hydroxyquinazolin-5-yl)benzyl)urea] |
| 200 to 1000 nM | C#Cc1nc(NC(=O)NCc2ccc(-c3cc(C(=O)N(C)C)cc4c3cnn4C)cc2)cs1 [Compound A23, 4-(4-((3-(2-Ethynylthiazol-4-yl)ureido)methyl)phenyl)-N,N,1-trimethyl-1H-indazole-6-carboxamide] |
| > 5000 nM | C#Cc1csc(C(=O)NCc2ccccc2)n1 [Compound C145, N-Benzyl-4-ethynylthiazole-2-carboxamide] |
| 200 to 1000 nM | C#Cc1nc(C(=O)NCCc2ccc(-c3cccc4c3CC(=O)N4C)cc2)cs1 [Compound C43, 2-Ethynyl-N-(4-(1-methyl-2-oxoindolin-4-yl)phenethyl)thiazole-4-carboxamide] |
| ≤ 200 nM | C#Cc1nc(NC(=O)N2CCN(c3ccc(-c4cccc5ncsc45)cc3)CC2)cs1 [Compound B5, 4-(4-(Benzo[d]thiazol-7-yl)phenyl)-N-(2-ethynylthiazol-4-yl)piperazine-1-carboxamide] |
| 200 to 1000 nM | C#Cc1nc(C(=O)NCCc2ccc(-c3cccc4[nH]ccc34)cc2)cs1 [Compound C51, N-(4-(1H-Indol-4-yl)phenethyl)-2-ethynylthiazole-4-carboxamide] |
| ≤ 200 nM | C#Cc1nc(C(=O)NCc2cccc(Cl)c2)cs1 [Compound C125, N-(3-Chlorobenzyl)-2-ethynylthiazole-4-carboxamide] |
| 200 to 1000 nM | C#Cc1nc(C(=O)NCCc2ccc(-c3cccc4c3CC(=O)N4)cc2)cs1 [Compound C48, 2-Ethynyl-N-(4-(2-oxoindolin-4-yl)phenethyl)thiazole-4-carboxamide] |
| 200 to 1000 nM | C#Cc1nc(NC(=O)N2CCCC2c2ccc(-c3cccc4ncsc34)cc2)cs1 (centres unmarked) [Compound B1, 2-(4-(Benzo[d]thiazol-7-yl)phenyl)-N-(2-ethynylthiazol-4-yl)pyrrolidine-1-carboxamide] |
| > 5000 nM | C#Cc1nc(C(=O)NCc2ccc(NC(C)=O)cc2)cs1 [Compound C89, N-(4-Acetamidobenzyl)-2-ethynylthiazole-4-carboxamide] |
| 1000 to 5000 nM | C#Cc1nc(C(=O)NCCc2ccccc2)cs1 [Compound C138, 2-Ethynyl-N-phenethylthiazole-4-carboxamide] |
| 200 to 1000 nM | C#Cc1nc(C(=O)N2CCN(c3ccccc3)CC2)cs1 [Compound D28, (2-Ethynylthiazol-4-yl)(4-phenylpiperazin-1-yl)methanone] |
| 200 to 1000 nM | C#Cc1nc(C(=O)NCCc2ccc(-c3c(C(N)=O)ccc4ncsc34)cc2)cs1 [Compound C3, 7-(4-(2-(2-Ethynylthiazole-4-carboxamido)ethyl)phenyl)benzo[d]thiazole-6-carboxamide] |
| ≤ 200 nM | C#Cc1nc(C(=O)N2CCN(c3ccc([N+](=O)[O-])cc3)CC2)cs1 [Compound D27, (2-Ethynylthiazol-4-yl)(4-(4-nitrophenyl)piperazin-1-yl)methanone] |
| 1000 to 5000 nM | C#Cc1nc(C(=O)NCc2ccc(-c3cnn(C)c3)cc2)cs1 [Compound C83, 2-Ethynyl-N-(4-(1-methyl-1H-pyrazol-4-yl)benzyl)thiazole-4-carboxamide] |
| ≤ 200 nM | C#Cc1nc(C(=O)N[C@@H](C)c2cccc(Cl)c2)cs1 [Compound C69, (S)—N-(1-(3-Chlorophenyl)ethyl)-2-ethynylthiazole-4-carboxamide] |
| ≤ 200 nM | C#Cc1nc(C(=O)NCc2ccc([N+](=O)[O-])cc2)cs1 [Compound C103, 2-Ethynyl-N-(4-nitrobenzyl)thiazole-4-carboxamide] |
| 1000 to 5000 nM | C#Cc1nc(C(=O)NCCc2ccc(NC(C)=O)cc2)cs1 [Compound C88, N-(4-Acetamidophenethyl)-2-ethynylthiazole-4-carboxamide] |
